# Assay results taken from PubChem BioAssay AID1963975 (Molecular Pharmacology Branch, DTP, NCI, 2024).
# Test system: 624824-186-R-J2-PDC multicell spheroids, viability
# Test: Anticancer human tumor 624824-186-R-J2-PDC patient-derived colon adenocarcinoma cell line growth inhibition [PI3K]
# Conditions: for IC50: curve of first compound; for viability, T/C: stronger effect = lower value
# Outline: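 High-throughput combination screen: PI3K inhibitors crossed with targeted small molecules on complex spheroids of tumor cells, HUVEC and MSCs at 37 degrees C, 5% CO2. Top concentration was at or near clinical Cmax (otherwise 10 microM), with half-log decrements.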
# [1] = second compound 0.00316 µM, first compound 0.0316 µM
# [2] = second compound 0.00316 µM, first compound 0.1 µM
# [3] = second compound 0.00316 µM, first compound 0.316 µM
# [4] = second compound 0.00316 µM, first compound 1 µM
# [5] = second compound 0.00316 µM, first compound 3.16 µM
# [6] = second compound 0.00316 µM, first compound 10 µM
# [7] = second compound 0.01 µM, first compound 0.0316 µM
# [8] = second compound 0.01 µM, first compound 0.1 µM
# [9] = second compound 0.01 µM, first compound 0.316 µM
# [10] = second compound 0.01 µM, first compound 1 µM
# [11] = second compound 0.01 µM, first compound 3.16 µM
# [12] = second compound 0.01 µM, first compound 10 µM
# [13] = second compound 0.0316 µM, first compound 0.0316 µM
# [14] = second compound 0.0316 µM, first compound 0.1 µM
# [15] = second compound 0.0316 µM, first compound 0.316 µM
# [16] = second compound 0.0316 µM, first compound 1 µM
# [17] = second compound 0.0316 µM, first compound 3.16 µM
# [18] = second compound 0.0316 µM, first compound 10 µM
# [19] = second compound 0.1 µM, first compound 0.0316 µM
# [20] = second compound 0.1 µM, first compound 0.1 µM
# [21] = second compound 0.1 µM, first compound 0.316 µM
# [22] = second compound 0.1 µM, first compound 1 µM
# [23] = second compound 0.1 µM, first compound 3.16 µM
# [24] = second compound 0.1 µM, first compound 10 µM
# [25] = second compound 0.316 µM, first compound 0.0316 µM
# [26] = second compound 0.316 µM, first compound 0.1 µM
# [27] = second compound 0.316 µM, first compound 0.316 µM
# [28] = second compound 0.316 µM, first compound 1 µM
# [29] = second compound 0.316 µM, first compound 3.16 µM
# [30] = second compound 0.316 µM, first compound 10 µM
# [31] = second compound 1 µM, first compound 0.0316 µM
# [32] = second compound 1 µM, first compound 0.1 µM
# [33] = second compound 1 µM, first compound 0.316 µM
# [34] = second compound 1 µM, first compound 1 µM
# [35] = second compound 1 µM, first compound 3.16 µM
# [36] = second compound 1 µM, first compound 10 µM
# 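Further: spheroids exposed to agents for 7 days before viability read.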
# 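Wherever viability, T/C is given: 100% = DMSO vehicle treated spheroids.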
smiles,measurement,setting,value
CCCS(=O)(=O)Nc1ccc(F)c(C(=O)c2c[nH]c3ncc(-c4ccc(Cl)cc4)cc23)c1F + COc1c(OCCCN2CCOCC2)ccc2c3n(c(=NC(=O)c4cnc(N)nc4)nc12)CCN3,IC50,second compound 0.00316 µM,9490 nM
same,IC50,second compound 0.01 µM,7330 nM
same,IC50,second compound 0.0316 µM,2200 nM
same,IC50,second compound 0.1 µM,1760 nM
same,IC50,second compound 0.316 µM,178 nM
same,IC50,second compound 1 µM,111 nM
same,"viability, T/C",[1],84.7%
same,"viability, T/C",[2],95.8%
same,"viability, T/C",[3],79.4%
same,"viability, T/C",[4],111%
same,"viability, T/C",[5],123%
same,"viability, T/C",[6],47.7%
same,"viability, T/C",[7],81.5%
same,"viability, T/C",[8],95.2%
same,"viability, T/C",[9],82.3%
same,"viability, T/C",[10],87.4%
same,"viability, T/C",[11],82.1%
same,"viability, T/C",[12],38%
same,"viability, T/C",[13],84.2%
same,"viability, T/C",[14],64.8%
same,"viability, T/C",[15],61.6%
same,"viability, T/C",[16],55.6%
same,"viability, T/C",[17],60.6%
same,"viability, T/C",[18],30.2%
same,"viability, T/C",[19],65.3%
same,"viability, T/C",[20],54.4%
same,"viability, T/C",[21],50%
same,"viability, T/C",[22],48.1%
same,"viability, T/C",[23],49.8%
same,"viability, T/C",[24],21.4%
same,"viability, T/C",[25],64.3%
same,"viability, T/C",[26],51%
same,"viability, T/C",[27],42.8%
same,"viability, T/C",[28],37.9%
same,"viability, T/C",[29],39.5%
same,"viability, T/C",[30],18.6%
same,"viability, T/C",[31],56.5%
same,"viability, T/C",[32],50.1%
same,"viability, T/C",[33],44.2%
same,"viability, T/C",[34],35.4%
same,"viability, T/C",[35],35.1%
same,"viability, T/C",[36],20.6%
C[C@@H](NC(=O)c1ncnc(N)c1Cl)c1ncc(C(=O)Nc2cc(C(F)(F)F)c(Cl)cn2)s1 + COc1c(OCCCN2CCOCC2)ccc2c3n(c(=NC(=O)c4cnc(N)nc4)nc12)CCN3,IC50,second compound 0.00316 µM,> 10000 nM
same,IC50,second compound 0.01 µM,> 10000 nM
same,IC50,second compound 0.0316 µM,> 10000 nM
same,IC50,second compound 0.1 µM,1020 nM
same,IC50,second compound 0.316 µM,505 nM
same,IC50,second compound 1 µM,511 nM
same,"viability, T/C",[1],106%
same,"viability, T/C",[2],112%
same,"viability, T/C",[3],93.5%
same,"viability, T/C",[4],84.4%
same,"viability, T/C",[5],62.2%
same,"viability, T/C",[6],65.2%
same,"viability, T/C",[7],95.5%
same,"viability, T/C",[8],119%
same,"viability, T/C",[9],106%
same,"viability, T/C",[10],70.1%
same,"viability, T/C",[11],61.6%
same,"viability, T/C",[12],62.6%
same,"viability, T/C",[13],91.3%
same,"viability, T/C",[14],93%
same,"viability, T/C",[15],88.9%
same,"viability, T/C",[16],63.9%
same,"viability, T/C",[17],63.4%
same,"viability, T/C",[18],48%
same,"viability, T/C",[19],88.7%
same,"viability, T/C",[20],73.9%
same,"viability, T/C",[21],64.6%
same,"viability, T/C",[22],50.2%
same,"viability, T/C",[23],38.7%
same,"viability, T/C",[24],33.1%
same,"viability, T/C",[25],77.2%
same,"viability, T/C",[26],59.9%
same,"viability, T/C",[27],55.7%
same,"viability, T/C",[28],46.4%
same,"viability, T/C",[29],33.8%
same,"viability, T/C",[30],28.9%
same,"viability, T/C",[31],62.4%
same,"viability, T/C",[32],63.4%
same,"viability, T/C",[33],52.1%
same,"viability, T/C",[34],42.5%
same,"viability, T/C",[35],39.2%
same,"viability, T/C",[36],26.1%
Cn1ncnc1[C@H]1c2n[nH]c(=O)c3cc(F)cc(c23)N[C@@H]1c1ccc(F)cc1 + COc1c(OCCCN2CCOCC2)ccc2c3n(c(=NC(=O)c4cnc(N)nc4)nc12)CCN3,IC50,second compound 0.00316 µM,> 100 nM
same,IC50,second compound 0.01 µM,> 100 nM
same,IC50,second compound 0.0316 µM,> 100 nM
same,IC50,second compound 0.1 µM,> 100 nM
same,IC50,second compound 0.316 µM,> 100 nM
same,IC50,second compound 1 µM,> 100 nM
same,"viability, T/C","second compound 0.00316 µM, first compound 0.000316 µM",93.9%
same,"viability, T/C","second compound 0.00316 µM, first compound 0.001 µM",83.3%
same,"viability, T/C","second compound 0.00316 µM, first compound 0.00316 µM",96.7%
same,"viability, T/C","second compound 0.00316 µM, first compound 0.01 µM",72%
same,"viability, T/C",[1],88.8%
same,"viability, T/C",[2],78.4%
same,"viability, T/C","second compound 0.01 µM, first compound 0.000316 µM",94.2%
same,"viability, T/C","second compound 0.01 µM, first compound 0.001 µM",81.2%
same,"viability, T/C","second compound 0.01 µM, first compound 0.00316 µM",79.8%
same,"viability, T/C","second compound 0.01 µM, first compound 0.01 µM",84.5%
same,"viability, T/C",[7],93.3%
same,"viability, T/C",[8],77.7%
same,"viability, T/C","second compound 0.0316 µM, first compound 0.000316 µM",90.2%
same,"viability, T/C","second compound 0.0316 µM, first compound 0.001 µM",81.9%
same,"viability, T/C","second compound 0.0316 µM, first compound 0.00316 µM",84.1%
same,"viability, T/C","second compound 0.0316 µM, first compound 0.01 µM",83.1%
same,"viability, T/C",[13],88%
same,"viability, T/C",[14],95.6%
same,"viability, T/C","second compound 0.1 µM, first compound 0.000316 µM",72.2%
same,"viability, T/C","second compound 0.1 µM, first compound 0.001 µM",77.4%
same,"viability, T/C","second compound 0.1 µM, first compound 0.00316 µM",70.6%
same,"viability, T/C","second compound 0.1 µM, first compound 0.01 µM",73.7%
same,"viability, T/C",[19],84.9%
same,"viability, T/C",[20],76.8%
same,"viability, T/C","second compound 0.316 µM, first compound 0.000316 µM",71.1%
same,"viability, T/C","second compound 0.316 µM, first compound 0.001 µM",65.2%
same,"viability, T/C","second compound 0.316 µM, first compound 0.00316 µM",61.7%
same,"viability, T/C","second compound 0.316 µM, first compound 0.01 µM",62.6%
same,"viability, T/C",[25],76.3%
same,"viability, T/C",[26],60.9%
same,"viability, T/C","second compound 1 µM, first compound 0.000316 µM",55.7%
same,"viability, T/C","second compound 1 µM, first compound 0.001 µM",50.2%
same,"viability, T/C","second compound 1 µM, first compound 0.00316 µM",55.9%
same,"viability, T/C","second compound 1 µM, first compound 0.01 µM",56.6%
same,"viability, T/C",[31],63.6%
same,"viability, T/C",[32],60.8%
